The supplement of paper PMC10307832

Experiments:
Assay in all cases: relative viability (nuclei count vs DMSO), 5 days (fraction); higher = more cells survive
NCI-H650 = tested on: NCI-H650
Method in brief: (§1)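 Nuclei were stained with Hoechst during a one-step fixation (final 0.05% Triton X-100, 1% formaldehyde, 1 ug/ml Hoechst) carried out 5 days after dosing, then counted on 4× images. The cells, lung cancer lines in 1536-well plates, had been dosed by pin tool the day after seeding with one drug alone or a fixed anchor-drug dose plus five library-drug doses (not always all listed) in √10 steps. Relative viability is the nuclei count in treated wells divided by that in vehicle wells, and each value is the median of duplicate plates.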

NCI-H358 = tested on: NCI-H358
Method in brief: as §1

NCI-H596 = tested on: NCI-H596
Method in brief: as §1

LXF-289 = tested on: LXF-289
Method in brief: as §1

HCC-15 = tested on: HCC-15
Method in brief: as §1

PC-3 [JPC-3] = tested on: PC-3 [JPC-3]
Method in brief: as §1

UMC-11 = tested on: UMC-11
Method in brief: as §1

NCI-H1666 = tested on: NCI-H1666
Method in brief: as §1

LU99A = tested on: LU99A
Method in brief: as §1

LC-2-ad = tested on: LC-2-ad
Method in brief: as §1

BEN = tested on: BEN
Method in brief: as §1

SK-MES-1 = tested on: SK-MES-1
Method in brief: as §1

NCI-H1651 = tested on: NCI-H1651
Method in brief: as §1

HCC-78 = tested on: HCC-78
Method in brief: as §1

NCI-H1944 = tested on: NCI-H1944
Method in brief: as §1

NCI-H322M = tested on: NCI-H322M
Method in brief: as §1

LK-2 = tested on: LK-2
Method in brief: as §1

H3255 = tested on: H3255
Method in brief: as §1

NCI-H661 = tested on: NCI-H661
Method in brief: as §1

NCI-H838 = tested on: NCI-H838
Method in brief: as §1

NCI-H2087 = tested on: NCI-H2087
Method in brief: as §1

LCLC-97TM1 = tested on: LCLC-97TM1
Method in brief: as §1

## C[C@@H]1CN(CC(=O)Nc2ccc3c(c2)Cc2cccc(-c4cc(=O)cc(N5CCOCC5)o4)c2S3)C[C@H](C)O1 + C[C@]1(O)C[C@@H](c2nc(-c3ccc4ccc(-c5ccccc5)nc4c3)c3c(N)nccn32)C1 [Linsitinib] (partner 1 µM)
NCI-H650; first compound 0.04 µM
  relative viability: 0.85
NCI-H650; first compound 0.1265 µM
  relative viability: 0.729
NCI-H650; first compound 0.4 µM
  relative viability: 0.86
NCI-H650; first compound 4 µM
  relative viability: 0.584
NCI-H358; first compound 0.04 µM
  relative viability: 0.854
NCI-H358; first compound 0.1265 µM
  relative viability: 0.733
NCI-H358; first compound 0.4 µM
  relative viability: 0.703
NCI-H358; first compound 4 µM
  relative viability: 0.487
NCI-H596; first compound 0.04 µM
  relative viability: 1.12
NCI-H596; first compound 0.1265 µM
  relative viability: 1.15
NCI-H596; first compound 0.4 µM
  relative viability: 0.922
NCI-H596; first compound 4 µM
  relative viability: 1
LXF-289; first compound 0.04 µM
  relative viability: 0.981
LXF-289; first compound 0.1265 µM
  relative viability: 0.983
LXF-289; first compound 0.4 µM
  relative viability: 1.02
LXF-289; first compound 4 µM
  relative viability: 0.933
HCC-15; first compound 0.04 µM
  relative viability: 0.85
HCC-15; first compound 0.1265 µM
  relative viability: 0.809
HCC-15; first compound 0.4 µM
  relative viability: 0.878
HCC-15; first compound 4 µM
  relative viability: 0.674
PC-3 [JPC-3]; first compound 0.04 µM
  relative viability: 1.06
PC-3 [JPC-3]; first compound 0.1265 µM
  relative viability: 0.993
PC-3 [JPC-3]; first compound 0.4 µM
  relative viability: 0.952
PC-3 [JPC-3]; first compound 4 µM
  relative viability: 0.868
UMC-11; first compound 0.04 µM
  relative viability: 0.997
UMC-11; first compound 0.1265 µM
  relative viability: 0.993
UMC-11; first compound 0.4 µM
  relative viability: 1.05
UMC-11; first compound 4 µM
  relative viability: 0.857
NCI-H1666; first compound 0.04 µM
  relative viability: 1.08
NCI-H1666; first compound 0.1265 µM
  relative viability: 0.908
NCI-H1666; first compound 0.4 µM
  relative viability: 0.839
NCI-H1666; first compound 4 µM
  relative viability: 0.565
LU99A; first compound 0.04 µM
  relative viability: 0.489
LU99A; first compound 0.1265 µM
  relative viability: 0.46
LU99A; first compound 0.4 µM
  relative viability: 0.572
LU99A; first compound 4 µM
  relative viability: 0.596
LC-2-ad; first compound 0.04 µM
  relative viability: 0.798
LC-2-ad; first compound 0.1265 µM
  relative viability: 0.895
LC-2-ad; first compound 0.4 µM
  relative viability: 0.839
LC-2-ad; first compound 4 µM
  relative viability: 0.719
BEN; first compound 0.04 µM
  relative viability: 0.782
BEN; first compound 0.1265 µM
  relative viability: 0.832
BEN; first compound 0.4 µM
  relative viability: 1.1
BEN; first compound 4 µM
  relative viability: 0.86
SK-MES-1; first compound 0.04 µM
  relative viability: 1.13
SK-MES-1; first compound 0.1265 µM
  relative viability: 1.06
SK-MES-1; first compound 0.4 µM
  relative viability: 1.02
SK-MES-1; first compound 4 µM
  relative viability: 0.836
NCI-H1651; first compound 0.04 µM
  relative viability: 1.01
NCI-H1651; first compound 0.1265 µM
  relative viability: 0.944
NCI-H1651; first compound 0.4 µM
  relative viability: 0.757
NCI-H1651; first compound 4 µM
  relative viability: 0.96
HCC-78; first compound 0.04 µM
  relative viability: 0.485
HCC-78; first compound 0.1265 µM
  relative viability: 0.461
HCC-78; first compound 0.4 µM
  relative viability: 0.344
HCC-78; first compound 4 µM
  relative viability: 0.461
NCI-H1944; first compound 0.1265 µM
  relative viability: 1.24
NCI-H1944; first compound 0.4 µM
  relative viability: 1.36
NCI-H1944; first compound 4 µM
  relative viability: 1.22
NCI-H322M; first compound 0.04 µM
  relative viability: 1.01
NCI-H322M; first compound 0.1265 µM
  relative viability: 0.847
NCI-H322M; first compound 0.4 µM
  relative viability: 0.857
NCI-H322M; first compound 4 µM
  relative viability: 0.79
LK-2; first compound 0.04 µM
  relative viability: 0.255
LK-2; first compound 0.1265 µM
  relative viability: 0.394
LK-2; first compound 0.4 µM
  relative viability: 0.666
LK-2; first compound 4 µM
  relative viability: 0.824
H3255; first compound 0.04 µM
  relative viability: 0.934
H3255; first compound 0.1265 µM
  relative viability: 1.04
H3255; first compound 0.4 µM
  relative viability: 0.818
H3255; first compound 4 µM
  relative viability: 0.879
NCI-H661; first compound 0.1265 µM
  relative viability: 0.556
NCI-H661; first compound 0.4 µM
  relative viability: 0.599
NCI-H661; first compound 4 µM
  relative viability: 0.506
NCI-H838; first compound 0.04 µM
  relative viability: 0.931
NCI-H838; first compound 0.1265 µM
  relative viability: 0.984
NCI-H838; first compound 0.4 µM
  relative viability: 0.871
NCI-H838; first compound 4 µM
  relative viability: 0.688
NCI-H2087; first compound 0.04 µM
  relative viability: 0.939
NCI-H2087; first compound 0.1265 µM
  relative viability: 1
NCI-H2087; first compound 0.4 µM
  relative viability: 0.91
NCI-H2087; first compound 4 µM
  relative viability: 0.772
LCLC-97TM1; first compound 0.1265 µM
  relative viability: 0.157
LCLC-97TM1; first compound 0.4 µM
  relative viability: 0.204
LCLC-97TM1; first compound 4 µM
  relative viability: 0.204

## C[C@@H]1CN(CC(=O)Nc2ccc3c(c2)Cc2cccc(-c4cc(=O)cc(N5CCOCC5)o4)c2S3)C[C@H](C)O1 + Cc1nc(NC(=O)N2CCC[C@H]2C(N)=O)sc1-c1ccnc(C(C)(C)C(F)(F)F)c1 [Alpelisib] (partner 2 µM)
NCI-H650; first compound 0.04 µM
  relative viability: 0.949
NCI-H650; first compound 0.1265 µM
  relative viability: 1.06
NCI-H650; first compound 0.4 µM
  relative viability: 1.15
NCI-H650; first compound 4 µM
  relative viability: 0.895
NCI-H358; first compound 0.04 µM
  relative viability: 1.12
NCI-H358; first compound 0.1265 µM
  relative viability: 0.859
NCI-H358; first compound 0.4 µM
  relative viability: 0.73
NCI-H358; first compound 4 µM
  relative viability: 0.491
NCI-H596; first compound 0.04 µM
  relative viability: 0.513
NCI-H596; first compound 0.1265 µM
  relative viability: 0.451
NCI-H596; first compound 0.4 µM
  relative viability: 0.384
NCI-H596; first compound 4 µM
  relative viability: 0.428
LXF-289; first compound 0.04 µM
  relative viability: 1.04
LXF-289; first compound 0.1265 µM
  relative viability: 1
LXF-289; first compound 0.4 µM
  relative viability: 0.996
LXF-289; first compound 4 µM
  relative viability: 1.02
HCC-15; first compound 0.04 µM
  relative viability: 0.976
HCC-15; first compound 0.1265 µM
  relative viability: 0.881
HCC-15; first compound 0.4 µM
  relative viability: 0.826
HCC-15; first compound 4 µM
  relative viability: 0.71
PC-3 [JPC-3]; first compound 0.04 µM
  relative viability: 1.02
PC-3 [JPC-3]; first compound 0.1265 µM
  relative viability: 1
PC-3 [JPC-3]; first compound 0.4 µM
  relative viability: 1
PC-3 [JPC-3]; first compound 4 µM
  relative viability: 0.952
UMC-11; first compound 0.04 µM
  relative viability: 1.1
UMC-11; first compound 0.1265 µM
  relative viability: 1.02
UMC-11; first compound 0.4 µM
  relative viability: 1.1
UMC-11; first compound 4 µM
  relative viability: 0.737
NCI-H1666; first compound 0.04 µM
  relative viability: 1.17
NCI-H1666; first compound 0.1265 µM
  relative viability: 1.12
NCI-H1666; first compound 0.4 µM
  relative viability: 0.964
NCI-H1666; first compound 4 µM
  relative viability: 0.654
LU99A; first compound 0.04 µM
  relative viability: 0.475
LU99A; first compound 0.1265 µM
  relative viability: 0.532
LU99A; first compound 0.4 µM
  relative viability: 0.567
LU99A; first compound 4 µM
  relative viability: 0.566
LC-2-ad; first compound 0.04 µM
  relative viability: 1.02
LC-2-ad; first compound 0.1265 µM
  relative viability: 0.864
LC-2-ad; first compound 0.4 µM
  relative viability: 0.77
LC-2-ad; first compound 4 µM
  relative viability: 0.848
BEN; first compound 0.04 µM
  relative viability: 1
BEN; first compound 0.1265 µM
  relative viability: 0.968
BEN; first compound 0.4 µM
  relative viability: 1.03
BEN; first compound 4 µM
  relative viability: 1.04
SK-MES-1; first compound 0.04 µM
  relative viability: 0.927
SK-MES-1; first compound 0.1265 µM
  relative viability: 0.826
SK-MES-1; first compound 0.4 µM
  relative viability: 1.02
SK-MES-1; first compound 4 µM
  relative viability: 0.813
NCI-H1651; first compound 0.04 µM
  relative viability: 0.953
NCI-H1651; first compound 0.1265 µM
  relative viability: 0.923
NCI-H1651; first compound 0.4 µM
  relative viability: 0.881
NCI-H1651; first compound 4 µM
  relative viability: 1.06
HCC-78; first compound 0.04 µM
  relative viability: 0.303
HCC-78; first compound 0.1265 µM
  relative viability: 0.3
HCC-78; first compound 0.4 µM
  relative viability: 0.278
HCC-78; first compound 4 µM
  relative viability: 0.33
NCI-H1944; first compound 0.1265 µM
  relative viability: 0.826
NCI-H1944; first compound 0.4 µM
  relative viability: 0.86
NCI-H1944; first compound 4 µM
  relative viability: 0.814
NCI-H322M; first compound 0.04 µM
  relative viability: 0.844
NCI-H322M; first compound 0.1265 µM
  relative viability: 0.833
NCI-H322M; first compound 0.4 µM
  relative viability: 0.832
NCI-H322M; first compound 4 µM
  relative viability: 0.839
LK-2; first compound 0.1265 µM
  relative viability: 1.11
LK-2; first compound 0.4 µM
  relative viability: 1.18
LK-2; first compound 4 µM
  relative viability: 1.28
H3255; first compound 0.04 µM
  relative viability: 0.569
H3255; first compound 0.1265 µM
  relative viability: 0.659
H3255; first compound 0.4 µM
  relative viability: 0.549
H3255; first compound 4 µM
  relative viability: 0.611
NCI-H661; first compound 0.1265 µM
  relative viability: 0.741
NCI-H661; first compound 0.4 µM
  relative viability: 0.526
NCI-H661; first compound 4 µM
  relative viability: 0.489
NCI-H838; first compound 0.04 µM
  relative viability: 0.971
NCI-H838; first compound 0.1265 µM
  relative viability: 0.913
NCI-H838; first compound 0.4 µM
  relative viability: 0.906
NCI-H838; first compound 4 µM
  relative viability: 0.784
NCI-H2087; first compound 0.04 µM
  relative viability: 1.49
NCI-H2087; first compound 0.1265 µM
  relative viability: 1.2
NCI-H2087; first compound 0.4 µM
  relative viability: 1.2
NCI-H2087; first compound 4 µM
  relative viability: 0.837
LCLC-97TM1; first compound 0.1265 µM
  relative viability: 0.225
LCLC-97TM1; first compound 0.4 µM
  relative viability: 0.237
LCLC-97TM1; first compound 4 µM
  relative viability: 0.238
